# Experimental data reported in PMC10698726 (Molecular Pharmaceutics, 2023).
# Like-named read-outs stand apart in the source and are kept apart here.
# T1: OCT1 (Homo sapiens, UniProt O15245)
# T1 sequence (O15245 1-554): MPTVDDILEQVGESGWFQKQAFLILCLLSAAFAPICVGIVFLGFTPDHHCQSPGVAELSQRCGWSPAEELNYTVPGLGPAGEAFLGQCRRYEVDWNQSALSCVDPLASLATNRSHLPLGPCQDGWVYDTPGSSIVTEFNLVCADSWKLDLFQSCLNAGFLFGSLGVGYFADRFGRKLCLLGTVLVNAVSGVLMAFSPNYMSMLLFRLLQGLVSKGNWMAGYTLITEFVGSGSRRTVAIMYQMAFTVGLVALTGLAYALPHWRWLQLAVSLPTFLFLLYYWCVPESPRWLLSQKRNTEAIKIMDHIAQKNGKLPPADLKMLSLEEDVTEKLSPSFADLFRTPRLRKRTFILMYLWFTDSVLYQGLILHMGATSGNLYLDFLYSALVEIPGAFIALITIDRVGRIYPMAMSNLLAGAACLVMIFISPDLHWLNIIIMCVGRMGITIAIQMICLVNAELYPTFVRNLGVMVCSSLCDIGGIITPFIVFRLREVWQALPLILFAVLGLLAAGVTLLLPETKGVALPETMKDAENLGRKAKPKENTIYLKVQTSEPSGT
# T2: OCT2 (Homo sapiens, UniProt O15244)
# T2 sequence (O15244 1-555): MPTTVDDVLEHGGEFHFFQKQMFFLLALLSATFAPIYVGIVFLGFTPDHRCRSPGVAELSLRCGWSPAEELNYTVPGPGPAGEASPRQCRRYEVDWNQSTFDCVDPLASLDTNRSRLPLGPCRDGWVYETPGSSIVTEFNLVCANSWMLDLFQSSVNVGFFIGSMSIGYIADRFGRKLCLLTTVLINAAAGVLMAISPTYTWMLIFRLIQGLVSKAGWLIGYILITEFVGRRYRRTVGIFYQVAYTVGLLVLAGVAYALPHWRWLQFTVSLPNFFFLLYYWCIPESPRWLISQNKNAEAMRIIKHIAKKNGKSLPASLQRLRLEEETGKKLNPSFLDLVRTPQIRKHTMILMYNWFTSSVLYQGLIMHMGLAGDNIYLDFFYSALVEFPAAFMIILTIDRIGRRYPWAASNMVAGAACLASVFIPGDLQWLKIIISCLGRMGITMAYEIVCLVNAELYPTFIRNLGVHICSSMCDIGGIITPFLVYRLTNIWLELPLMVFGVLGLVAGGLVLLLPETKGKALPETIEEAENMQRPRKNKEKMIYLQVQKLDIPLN
# T3: OCT3 (Homo sapiens, UniProt O75751)
# T3 construct: expressed in transfected cells; host or cells: HEK293
# T3 sequence (O75751 1-556): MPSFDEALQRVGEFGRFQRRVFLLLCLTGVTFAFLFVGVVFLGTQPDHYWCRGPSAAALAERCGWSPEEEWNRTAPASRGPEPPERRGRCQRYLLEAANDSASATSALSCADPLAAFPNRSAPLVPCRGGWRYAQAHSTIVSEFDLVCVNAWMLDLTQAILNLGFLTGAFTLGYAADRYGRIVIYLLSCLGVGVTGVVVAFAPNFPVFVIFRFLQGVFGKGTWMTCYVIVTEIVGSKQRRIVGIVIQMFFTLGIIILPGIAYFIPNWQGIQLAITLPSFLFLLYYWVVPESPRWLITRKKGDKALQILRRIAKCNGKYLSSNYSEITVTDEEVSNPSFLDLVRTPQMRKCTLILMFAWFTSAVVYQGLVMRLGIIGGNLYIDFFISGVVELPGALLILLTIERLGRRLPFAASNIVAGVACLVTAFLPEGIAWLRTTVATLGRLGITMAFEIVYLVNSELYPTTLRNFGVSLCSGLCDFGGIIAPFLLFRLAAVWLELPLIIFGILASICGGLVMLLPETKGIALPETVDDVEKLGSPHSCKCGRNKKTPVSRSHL
# B1: OCT2 (Homo sapiens) (protein)
# chain: T2 sequence (O15244 1-555)
# B2: OCT3 (Homo sapiens) (protein)
# chain: T3 sequence (O75751 1-556)
# Columns and labels:
# [1] = target: T1, OCT1; details: cited from earlier work
# [2] = target: T2, OCT2; experiment: Inhibition of model substrate uptake in OCT2-overexpressing HEK293 cells; details: OCT2, 20 μM inhibitor, 5 min
# [3] = target: T3, OCT3; experiment: Inhibition of model substrate uptake in OCT3-overexpressing HEK293 cells; type: cell-based; details: OCT3, 20 μM inhibitor, 5 min
# Summary of the method: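 Transporter-overexpressing HEK293 cells were incubated 5 min in HBSS+ with 2 μM model substrate, with or without 20 μM inhibitor or increasing inhibitor concentrations. Uptake was read as ASP^+ fluorescence or by LC–MS/MS, with empty-vector uptake subtracted. IC50 came from a Hill fit of activity versus log concentration.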
# [4] = target: T3, OCT3; experiment: Concentration-dependent uptake of model substrates, OCT3-overexpressing HEK293 cells; type: in vitro ADME; details: this study; for Clint ± SEM: vmax over Km
# Procedure: (§1) Koepsell and Gorbulev (University of Würzburg, Germany).
# (§2) Prior to inhibition studies, the used model substrates were validated in concentration-dependent uptake experiments if no literature data were available (Table S2 and Figures S2 and S3). Thereby, we ensured that the model substrate concentration used in the subsequent inhibition experiments was sufficiently below the Km value of its uptake kinetics. […] On the day of the experiment, the cells were washed once with prewarmed to 37 °C HBSS (Thermo Fisher Scientific, Darmstadt, Germany) supplemented with 10 mM HEPES and pH adjusted to 7.4 (Sigma-Aldrich)—hereafter termed HBSS+. For concentration-dependent experiments, the cells were incubated with increasing substrate concentrations for 2 min. Uptake was terminated by adding ice-cold HBSS+. Afterward, the cells were washed twice with ice-cold HBSS+, and cell lysis was done with 80% (v/v) acetonitrile (LGC Standards, Wesel, Germany) to which an internal standard for eventual LC–MS/MS analysis had been added. Intracellularly accumulated substrates were then quantified by LC–MS/MS analysis, and calibration was performed with known concentrations of the respective substances. All uptake data were normalized to the number of seeded cells by measuring the total protein content in radioimmunoprecipitation assay buffer-lysed cells in a bicinchoninic acid assay.[29]
# [5] = target: T1, OCT1; experiment: Inhibition of model substrate uptake in OCT1-overexpressing HEK293 cells; type: cell-based; set-up: expressed in transfected cells; host or cells: HEK293; details: OCT1, 20 μM inhibitor, 5 min
# Procedure: as §1
# Fluorescence quantification was performed in technical duplicates.
# [6] = target: T1, OCT1; experiment: Concentration-dependent uptake of model substrates, OCT1-overexpressing HEK293 cells; type: in vitro ADME; set-up: expressed in transfected cells; host or cells: HEK293; details: this study; for Clint ± SEM: vmax over Km
# Procedure: as §1, §2
# [7] = target: T2, OCT2; experiment: Concentration-dependent uptake of model substrates, OCT2-overexpressing HEK293 cells; type: in vitro ADME; set-up: expressed in transfected cells; host or cells: HEK293; details: this study; for Clint ± SEM: vmax over Km; for Km: read-out: Km ± SEM
# Procedure: as §1, §2
# [8] = target: T3, OCT3; set-up: method as in earlier work; details: ref 3 (Gebauer et al., 2022, supplement), cited from earlier work
# [9] = substrate: CCC(CO)NCCNC(CC)CO; experiment: not read
# [10] = ref 2 (Matthaei et al., 2016, supplement)
molecule,measurement,setting,value
"CC(Cc1ccc(O)cc1)NCC(O)c1cc(O)cc(O)c1 (racemic) [rac Fenoterol, Fenoterol]",Clint ± SEM,"[1]; ref 1 (Tzvetkov et al., 2018, supplement)",33.0
"CCC(CO)NCCNC(CC)CO [(S,S)-Ethambutol]",ASP+ inhibition [%],[2]; 2 μM ASP+,38.8%
same,N-Ethyllidocaine inhibition [%],[2]; 2 μM N-ethyllidocaine,10.0%
same,(S)-Zolmitriptan inhibition [%],[3]; 2 μM (S)-zolmitriptan,-1.3%
same,ASP+ inhibition [%],[3]; 2 μM ASP+,3.7%
same,Clint ± SEM,[4],16.9
same,ASP+ inhibition [%],"[5]; 2 μM ASP+, mean of three experiments",5.5%
same,Sumatriptan inhibition [%],[5]; 2 μM sumatriptan,17.8%
same,Clint ± SEM,[6],14.1
same,Clint ± SEM,[7],36.6
"CN(C)c1ccc(C=Cc2cc[n+](C)cc2)cc1 [ASP+, 4-(4-(dimethylamino)styryl)-N-methylpyridinium]",vmax ± SEM [pmol × mg Protein−1 × min−1],[4],3381 pmol × mg Protein−1 × min−1
same,Km,[4]; read-out: Km ± SEM,16.5 µM
same,Clint ± SEM,[4],205
same,Km,"[6]; 2 min uptake, read-out: Km ± SEM",11.7 µM
same,vmax ± SEM [pmol × mg Protein−1 × min−1],[6],2678 pmol × mg Protein−1 × min−1
same,Clint ± SEM,[6],230
same,vmax ± SEM [pmol × mg Protein−1 × min−1],[7],1812 pmol × mg Protein−1 × min−1
same,Km,[7],29.6 µM
same,Clint ± SEM,[7],61.3
CC[N+](CC)(CC)CC(=O)Nc1c(C)cccc1C [N-Ethyllidocaine],Km,[8]; read-out: Km ± SEM,46.3 µM
same,Clint ± SEM,[8],8.80
same,vmax ± SEM [pmol × mg Protein−1 × min−1],[8],407 pmol × mg Protein−1 × min−1
same,vmax ± SEM [pmol × mg Protein−1 × min−1],[7],5172 pmol × mg Protein−1 × min−1
same,Km,[7],87.7 µM
same,Clint ± SEM,[7],58.9
CNS(=O)(=O)Cc1ccc2[nH]cc(CCN(C)C)c2c1 [Sumatriptan],Km,"[1]; read-out: Km ± SEM, ref 2 (Matthaei et al., 2016, supplement)",55.4 µM
same,Clint ± SEM,[1]; [10],17.6
same,vmax ± SEM [pmol × mg Protein−1 × min−1],[1]; [10],978 pmol × mg Protein−1 × min−1
B1,Km,"[9]; other: OCT2, this study",163 µM
same,Vmax,"[9]; other: OCT2, this study",0.00597 µmol/min/mg
B2,Km,"[9]; other: OCT3, this study",146 µM
same,Vmax,"[9]; other: OCT3, this study",0.00246 µmol/min/mg
